Molecular target: T1, prostaglandin-15-dehydrogenase (Homo sapiens, UniProt P15428)
T1 construct: from tissue
T1 sequence (P15428 1-266): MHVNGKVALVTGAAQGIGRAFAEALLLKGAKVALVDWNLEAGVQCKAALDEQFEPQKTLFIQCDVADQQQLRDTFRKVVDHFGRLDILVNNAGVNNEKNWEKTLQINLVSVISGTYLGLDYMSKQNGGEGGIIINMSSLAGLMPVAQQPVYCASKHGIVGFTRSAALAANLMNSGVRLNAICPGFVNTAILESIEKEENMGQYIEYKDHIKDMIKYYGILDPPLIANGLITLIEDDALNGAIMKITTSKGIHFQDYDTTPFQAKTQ
Assay: Inhibition of prostaglandin F2a inactivation in cell-free organ preparations (Hoult and Moore)
Type: biochemical
Details: in vitro, radioactive prostaglandin F2a incubated with cellfree preparations of different organs; compared to sulfasalazine (compound A)
Protocol: Radioactive prostaglandin F2a was incubated with cellfree preparations of different organs (containing prostaglandin-15-dehydrogenase) according to Hoult and Moore, British Journal of Pharmacology, Vol. 61 (1977), p. 615. After a suitable time the prostaglandins were extracted and separated by chromatography. Then the amount of remaining prostaglandin F 2a was compared with the amounts of metabolites. The inhibiting effect was obtained by the addition of the compounds according to the invention during the incubation and comparison with control experiments without such addition. The results may be represented either as a concentration giving 50% inhibition of the prostaglandin inactivation, or as an inhibition in per cen at a certain concentration of the studied compound. In the following table the results for some compounds according to the invention are shown compared to the known drug sulfasalazine.

Compound	activity (inhibition of the prostaglandin inactivation) compared with compound A, in words	activity (inhibition of the prostaglandin inactivation) relative to the known compound A
O=C(O)Cc1cc(N=Nc2ccccc2)ccc1O [C, 2-hydroxy-5-phenylazo-benzeneacetic acid]	significantly more active than compound A	
O=C(O)Cc1cc(N=Nc2ccc(S(=O)(=O)Nc3ccccn3)cc2)ccc1O [compound B]		50 times

Source: patent publication EP0021229A1, “Arylazo compounds, their preparation and their use” (priority 1979, dated 1981)
